Values joined by “and” are separate entries in the source; they are usually repeats but may differ in a detail not shown here. Equal values may be shown once.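 The compound was tested at five concentrations on cells cultured in 96-well plates, with a 48-hour exposure period. GI50 is the concentration that inhibits growth by half. TGI: concentration producing complete growth inhibition.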
Experiments:
Test in all cases: NCI-60 cell line screen, 48 h
786-0 renal = tested on: 786-0 renal
SW-620 colon = tested on: SW-620 colon
ACHN renal = tested on: ACHN renal
CAKI-1 renal = tested on: CAKI-1 renal
OVCAR-3 ovarian = tested on: OVCAR-3 ovarian
NCI-H460 lung = tested on: NCI-H460 lung
SK-MEL-2 melanoma = tested on: SK-MEL-2 melanoma
HL-60(TB) leukemia = tested on: HL-60(TB) leukemia
LOX IMVI melanoma = tested on: LOX IMVI melanoma
MCF7 breast = tested on: MCF7 breast

SMILES | TGI (786-0 renal) | TGI (SW-620 colon) | TGI (ACHN renal) | TGI (CAKI-1 renal) | TGI (OVCAR-3 ovarian) | TGI (NCI-H460 lung) | TGI (SK-MEL-2 melanoma) | TGI (HL-60(TB) leukemia) | TGI (LOX IMVI melanoma) | GI50 (LOX IMVI melanoma) [µM] | GI50 (786-0 renal) [µM] | GI50 (SW-620 colon) [µM] | GI50 (ACHN renal) [µM] | GI50 (OVCAR-3 ovarian) [µM] | GI50 (NCI-H460 lung) [µM] | GI50 (MCF7 breast) [µM] | TGI (MCF7 breast) [µM] | GI50 (SK-MEL-2 melanoma) [µM] | GI50 (HL-60(TB) leukemia)
Cc1ccc(/C=C2\CCCC(C(NO)c3ccc(C)cc3)C2=NO)cc1 (stereo unspecified) | > 100 µM | > 100 µM | > 100 µM | > 100 µM | 43.7 µM | 62.6 µM | > 100 µM | 40.1 µM |  |  |  |  |  |  |  |  |  |  | 
COc1cc2ccc(CC(=O)O)cc2cc1OC | > 100 µM | > 100 µM | > 100 µM | > 100 µM | > 100 µM |  | > 100 µM | > 100 µM |  |  |  |  |  |  |  |  |  |  | 
CC1(C)O[C@@H](CCl)C[C@@H](C#N)O1 | > 100 µM | > 100 µM | > 100 µM | > 100 µM | > 100 µM | > 100 µM | > 100 µM | > 100 µM | > 100 µM |  |  |  |  |  |  |  |  |  | 
CN(C)CCC(/C=C/c1ccccc1)=N\Nc1c(F)c(F)c(F)c(F)c1F | > 100 µM | > 100 µM | > 100 µM |  | > 100 µM | > 100 µM | > 100 µM | 37.8 µM | > 100 µM |  |  |  |  |  |  |  |  |  | 
CCOc1ccccc1NC(=O)C1=C(C)NC(C)=C(C(=O)Nc2ccccc2OCC)C1c1ccc2c(c1)OCO2 | > 100 µM | > 100 µM | > 100 µM | > 100 µM | 71.8 µM | > 100 µM | 55.3 µM | 45.3 µM | > 100 µM |  |  |  |  |  |  |  |  |  | 
Clc1ccc(/C=C/c2csnn2)cc1 | > 100 µM | > 100 µM | > 100 µM | > 100 µM | > 100 µM | > 100 µM | > 100 µM | > 100 µM | > 100 µM |  |  |  |  |  |  |  |  |  | 
Cc1c(C(=O)/C=C/c2ccc3c(c2)OCO3)[n+](=O)c2ccccc2n1[O-] | > 100 µM | > 100 µM | > 100 µM | 85.7 µM | 83.3 µM | 75.6 µM |  | > 100 µM | 66.3 µM |  |  |  |  |  |  |  |  |  | 
O=C(NCCOC(=O)CCCCCCCCC(=O)OCCNC(=O)NC(=O)c1cn(Cc2ccccc2)c(=O)[nH]c1=O)NC(=O)c1cn(Cc2ccccc2)c(=O)[nH]c1=O | > 100 µM | > 100 µM | > 100 µM | > 100 µM | > 100 µM | > 100 µM | > 100 µM | > 100 µM | > 100 µM |  |  |  |  |  |  |  |  |  | 
COc1cc2c(cc1OC)C(Sc1ccc(Cl)cc1)c1c(nc(N)c(C#N)c1N)O2 (stereo unspecified) | 2.7 µM | 3.14 µM | 2.95 µM |  | 2.56 µM | 3.74 µM | 2.55 µM | 3.73 µM | 2.35 µM | 1.09 | 1.37 | 1.37 | 1.59 | 1.27 | 1.65 | 0.564 | 2.91 | 1.2 | 0.578 µM
COc1cc(COC(=O)N(C)[C@@H](Cc2ccccc2)C(=O)O)c([N+](=O)[O-])cc1OC | > 100 µM | > 100 µM | > 100 µM |  | > 100 µM | > 100 µM |  | > 100 µM |  |  |  |  |  |  |  |  | > 100 |  | 
COc1ccc(C2NC(c3ccc(OC)cc3)C(C)C(=O)C2C)cc1 (stereo unspecified) | > 100 µM |  | > 100 µM |  | > 100 µM | > 100 µM | > 100 µM | > 100 µM | > 100 µM |  |  |  |  |  |  |  |  |  | 
CC1(O)CC2C(CC1SCc1ccccc1)C2(C)C (stereo unspecified) | 42.7 µM and 29.3 µM | 46.8 µM and 32.9 µM | 34.5 µM and 30.4 µM | 32 µM and 25.2 µM | 33.6 µM and 25.2 µM | 57.8 µM and 27.7 µM | 33.3 µM and 26.1 µM | > 100 µM and 33.8 µM | 29.3 µM and 31.5 µM |  |  |  |  |  |  |  |  |  | 28.3 µM and 10.2 µM
c1ccc2c(c1)n1nnnc1c1nnnn21 | > 100 µM | > 100 µM | > 100 µM | > 100 µM | > 100 µM | > 100 µM | > 100 µM |  | > 100 µM |  |  |  |  |  |  |  |  |  | 
CCOC(=O)c1cnc2c(ccc3ncccc32)c1OCC | > 100 µM | > 100 µM | > 100 µM |  | > 100 µM | > 100 µM | > 100 µM | > 100 µM | > 100 µM |  |  |  |  |  |  |  |  |  | 
O=C(N[C@H]1CC2(C=C(I)C(=O)C(I)=C2)OC1=O)OCc1ccccc1 | 35.2 µM |  | 32.8 µM | 36.3 µM | 31.3 µM | 43 µM |  | 21.4 µM | 30.6 µM |  |  |  |  |  |  |  |  |  | 
CCOc1ccc(N=Nc2c(-c3ccccc3)nn(C(=O)CC(=O)Nc3ccccc3Cl)c2-c2ccccc2)cc1 | > 100 µM | > 100 µM | > 100 µM | > 100 µM | > 100 µM | > 100 µM | > 100 µM | > 100 µM | > 100 µM |  |  |  |  |  |  |  |  |  | 
O=C1Cc2c([nH]c3ccccc23)-c2cc(Br)ccc2N1 | > 100 µM | > 100 µM | > 100 µM | > 100 µM | > 100 µM | > 100 µM | > 100 µM | > 100 µM | > 100 µM |  |  |  |  |  |  |  |  |  | 
COc1cc([N+](=O)[O-])c(S(=O)(=O)O)cc1-[n+]1nc(C(=O)Nc2ccccc2)nn1-c1ccc([N+](=O)[O-])c(S(=O)(=O)[O-])c1 | > 100 µM | > 100 µM | > 100 µM | > 100 µM | > 100 µM | > 100 µM | > 100 µM | > 100 µM |  |  |  |  |  |  |  |  | > 100 |  | 
CNC(=O)N(CCCCC(NC(C)=O)C(=O)NCc1ccccc1)Cc1ccccc1 (stereo unspecified) | > 100 µM | > 100 µM | > 100 µM | > 100 µM | > 100 µM | > 100 µM | > 100 µM |  | > 100 µM |  |  |  |  |  |  |  |  |  | 
COc1ccc(S(=O)(=O)NNS(C)(=O)=O)cc1OC | > 100 µM | > 100 µM | > 100 µM | > 100 µM |  | > 100 µM | > 100 µM | > 100 µM | > 100 µM |  |  |  |  |  |  |  |  |  | 
O=S1(=O)CS(=O)(=O)OCCCCCO1 | > 100 µM | > 100 µM | > 100 µM | > 100 µM |  | > 100 µM | > 100 µM |  | > 100 µM |  |  |  |  |  |  |  |  |  | 
Cc1cc(N(CCC#N)CCC#N)ccc1/C=C1N=C(/C=C\c2ccccc2)N(c2ccc(C(=O)O)cc2)C\1=O | > 100 µM | > 100 µM | > 100 µM | > 100 µM | > 100 µM | > 100 µM | > 100 µM | > 100 µM | > 100 µM |  |  |  |  |  |  |  |  |  | 
